Target: Arf-GAP with GTPase, ANK repeat and PH domain-containing protein 2 (Homo sapiens) (UniProt Q99490)
Experiment: ligand binding to human centaurin gamma 1 – biophysical, DSF, SYPRO orange, recombinant protein (AID 511)
Conditions: recombinant CENTG1, DSF SYPRO orange Tm shift; at 50000 µM; protein 4.5 µM; buffer 100 mM HEPES; pH 7.5; NaCl 150 mM; active compounds read high

Arf-GAP with GTPase, ANK repeat and PH domain-containing protein 2 (Homo sapiens), sequence (Q99490 whole entry, looked up, the tested form may be a part): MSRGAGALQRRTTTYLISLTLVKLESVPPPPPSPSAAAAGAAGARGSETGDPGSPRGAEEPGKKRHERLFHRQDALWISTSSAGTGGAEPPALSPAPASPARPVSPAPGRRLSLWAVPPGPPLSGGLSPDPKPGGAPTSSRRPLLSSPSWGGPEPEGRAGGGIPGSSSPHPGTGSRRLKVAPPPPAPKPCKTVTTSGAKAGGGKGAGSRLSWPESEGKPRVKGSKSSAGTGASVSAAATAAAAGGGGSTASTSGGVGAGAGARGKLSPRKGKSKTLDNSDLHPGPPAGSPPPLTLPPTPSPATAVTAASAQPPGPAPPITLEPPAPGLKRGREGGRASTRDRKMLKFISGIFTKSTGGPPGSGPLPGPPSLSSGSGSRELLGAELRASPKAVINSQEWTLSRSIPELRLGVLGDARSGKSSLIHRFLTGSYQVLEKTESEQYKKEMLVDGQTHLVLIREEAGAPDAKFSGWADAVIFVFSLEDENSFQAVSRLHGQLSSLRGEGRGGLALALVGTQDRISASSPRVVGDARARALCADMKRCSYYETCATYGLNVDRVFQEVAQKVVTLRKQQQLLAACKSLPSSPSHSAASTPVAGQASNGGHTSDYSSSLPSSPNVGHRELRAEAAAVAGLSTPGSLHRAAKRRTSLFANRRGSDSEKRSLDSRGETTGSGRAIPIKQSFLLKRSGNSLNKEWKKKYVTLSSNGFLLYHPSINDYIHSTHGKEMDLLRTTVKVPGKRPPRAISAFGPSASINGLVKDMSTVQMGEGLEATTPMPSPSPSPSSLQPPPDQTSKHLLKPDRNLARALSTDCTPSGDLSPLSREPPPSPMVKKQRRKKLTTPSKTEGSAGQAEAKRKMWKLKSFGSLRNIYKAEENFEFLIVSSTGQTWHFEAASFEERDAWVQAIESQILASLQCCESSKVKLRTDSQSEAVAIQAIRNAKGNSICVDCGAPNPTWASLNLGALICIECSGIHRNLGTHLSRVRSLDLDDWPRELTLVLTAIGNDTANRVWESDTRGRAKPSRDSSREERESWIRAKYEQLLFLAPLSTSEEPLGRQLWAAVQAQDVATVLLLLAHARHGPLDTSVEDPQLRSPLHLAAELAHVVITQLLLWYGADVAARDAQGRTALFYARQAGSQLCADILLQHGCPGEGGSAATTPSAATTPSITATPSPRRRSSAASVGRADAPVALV

Question: For NC(CS)C(=O)O (stereo unspecified), which Tm shift is on record?
Answer: The Tm shift was 3.9 Celsius.
